Where a SMILES comes first, the peptide text is derived from it.

This note sets out measurements from US9375459B2, “Cyclic peptides with an anti-neoplasic and anti-angiogenic activity” (priority 2011, dated 2016).

The test system of one data set is human tumor cells. Nature of the data set: Cytotoxic activity screening of peptide library on human tumor cell lines, SRB method. In kind it is cell-based. The note with it: SRB method; cytotoxic = dose-dependent 50% inhibition of proliferation, GI50 below 100 μM in at least one cell line. As for the experimental part:
Negative control cells were cultured on a volume of vehicle equal to that of the experimental samples. An “x-y” curve (dose-response) was established with the percent of surviving cells, compared in respect to the negative control cells, and the following parameters were estimated: 50% growth inhibition (GI50); Total growth inhibition (TGI); and the lethal concentration 50 (LC50), that is the concentration causing the 50% of cell death (Boyd M R, Paull K D, and Rubinstein L R (1992) “Data display and analysis strategies for the NCI Disease Oriented In-Vitro Antitumor Drug Screen, in Cytotoxic Anticancer Drugs: Models and Concept for Drug Discovery and Development” (Baleriote F A, Corbett T H and Baker L H eds) pp 11-34, Kluwer Academia Publishers, Boston).
Were considered as cytotoxic peptides all those peptides being able of inhibiting 50% of the cellular proliferation, in a dose-dependent manner, and showing GI50 values below 100 μM, at least in one of the cell lines studied. The human tumor cell lines used were: HEp-2 (larynx carcinoma), A549 (lung epithelial adenocarcinoma), M14 (melanoma), Colo 205 (colon adenocarcinoma), Ls174T (colon adenocarcinoma), LnCAP (prostate carcinoma), PC-3 (prostate carcinoma) and H 125 (non-small cell lung adenocarcinoma). Represented are primary sequences for the designed peptides, the code used for its generation and their respective cytotoxic capacity on human tumor cells.
In the case of `CC[C@H](C)[C@H](NC(=O)[C@H](CCCNC(=N)N)NC(=O)[C@H](CCC(N)=O)NC(=O)[C@H](CC(N)=O)NC(=O)[C@H](C)NC(=O)[C@@H](NC(=O)[C@H](Cc1ccc(O)cc1)NC(=O)CNC(=O)[C@@H](N)CO)[C@@H](C)O)C(=O)N[C@@H](CC(N)=O)C(=O)N[C@@H](CC(C)C)C(=O)N[C@@H](CC(N)=O)C(=O)N[C@@H](CCC(=O)O)C(=O)N[C@@H](CCCCN)C(=O)N[C@@H](CO)C(=O)N[C@@H](Cc1ccccc1)C(=O)N[C@@H](CO)C(=O)N[C@@H](CC(=O)O)C(=O)N[C@H](C(=O)NCC(N)=O)C(C)C` [Peptide A07P42] (H-SGYTANQRINLNEKSFSDVG-NH2), the “Cytotoxic activity in vitro” value is “− (symbol − indicates its absence, following criteria established in Example 2)”.

`CC(C)C[C@H](NC(=O)[C@@H](NC(=O)[C@H](CC(=O)O)NC(=O)[C@H](CC(N)=O)NC(=O)CNC(=O)[C@H](C)NC(=O)CNC(=O)CNC(=O)[C@H](CCCCN)NC(=O)[C@H](CC(C)C)NC(=O)[C@@H](NC(=O)[C@H](CC(N)=O)NC(=O)[C@H](CC(N)=O)NC(=O)[C@H](C)N)C(C)C)C(C)C)C(=O)N[C@@H](Cc1ccccc1)C(=O)NCC(=O)NCC(=O)NCC(=O)NCC(=O)N[C@@H](C)C(N)=O` [Peptide A07P43] (H-ANNVLKGGAGNDVLFGGGGA-NH2): the “Cytotoxic activity in vitro” value was “− (symbol − indicates its absence, following criteria established in Example 2)”.

On to `CC[C@H](C)[C@H](NC(=O)[C@H](C)NC(=O)[C@H](CC(N)=O)NC(=O)[C@H](CCC(=O)O)NC(=O)[C@@H](NC(=O)[C@@H](NC(=O)[C@@H](NC(=O)CNC(=O)[C@H](C)NC(=O)[C@H](C)NC(=O)[C@@H](NC(=O)[C@H](CO)NC(=O)[C@@H](NC(=O)[C@H](CC(N)=O)NC(=O)CNC(=O)[C@H](CCCCN)NC(=O)[C@H](CC(C)C)NC(=O)CN)C(C)C)[C@@H](C)CC)C(C)C)[C@@H](C)O)[C@@H](C)CC)C(=O)NCC(=O)NCC(N)=O` [Peptide A07P44] (H-GLKGNVSIAAGVTIENAIGG-NH2), for which the “Cytotoxic activity in vitro” value is on record as “− (symbol − indicates its absence, following criteria established in Example 2)”.

Turning to `CC[C@H](C)[C@H](NC(=O)[C@H](C)NC(=O)[C@H](CC(N)=O)NC(=O)[C@H](CCC(=O)O)NC(=O)[C@@H](NC(=O)[C@@H](NC(=O)[C@@H](NC(=O)CN)C(C)C)[C@@H](C)O)[C@@H](C)CC)C(=O)NCC(=O)NCC(=O)N[C@@H](CO)C(=O)NCC(=O)N[C@@H](CC(N)=O)C(=O)N[C@@H](CC(=O)O)C(=O)N[C@H](C(=O)N[C@H](C(=O)N[C@H](C(=O)NCC(=O)N[C@@H](CC(N)=O)C(=O)N[C@@H](C)C(N)=O)C(C)C)[C@@H](C)CC)C(C)C` [Peptide A07P45] (H-GVTIENAIGGSGNDVIVGNA-NH2), the “Cytotoxic activity in vitro” value is recorded as “− (symbol − indicates its absence, following criteria established in Example 2)”.

As to `CC(C)C[C@H](NC(=O)[C@H](CCC(=O)O)NC(=O)[C@H](CC(=O)O)NC(=O)[C@H](C)NC(=O)CNC(=O)CNC(=O)CNC(=O)CNC(=O)[C@H](Cc1ccccc1)NC(=O)[C@H](CC(C)C)NC(=O)[C@@H](NC(=O)[C@H](CC(=O)O)NC(=O)[C@@H](N)CC(N)=O)C(C)C)C(=O)N[C@@H](Cc1c[nH]c2ccccc12)C(=O)NCC(=O)NCC(=O)N[C@@H](C)C(=O)NCC(=O)N[C@@H](CCCCN)C(=O)N[C@@H](CC(=O)O)C(N)=O` [Peptide A07P46] (H-NDVLFGGGGADELWGGAGKD-NH2), the “Cytotoxic activity in vitro” value is recorded as “− (symbol − indicates its absence, following criteria established in Example 2)”.

With `CC[C@H](C)[C@H](NC(=O)[C@H](CO)NC(=O)[C@@H](NC(=O)[C@H](CC(N)=O)NC(=O)CNC(=O)[C@H](CCCCN)NC(=O)[C@H](CC(C)C)NC(=O)CNC(=O)CNC(=O)[C@@H](NC(=O)[C@H](CC(=O)O)NC(=O)[C@H](CO)NC(=O)[C@H](Cc1ccccc1)NC(=O)[C@H](CO)NC(=O)[C@H](CCCCN)NC(=O)[C@H](CCC(=O)O)NC(=O)[C@H](CC(N)=O)NC(=O)[C@@H](N)CC(C)C)C(C)C)C(C)C)C(=O)N[C@@H](C)C(=O)N[C@@H](C)C(N)=O` [Peptide A07P47] (H-LNEKSFSDVGGLKGNVSIAA-NH2), the “Cytotoxic activity in vitro” value is listed as “− (symbol − indicates its absence, following criteria established in Example 2)”.

With `C[C@H](NC(=O)[C@H](C)NC(=O)[C@H](Cc1ccc(O)cc1)NC(=O)[C@H](Cc1c[nH]cn1)NC(=O)CNC(=O)CNC(=O)[C@H](CC(N)=O)NC(=O)[C@H](CC(=O)O)NC(=O)CNC(=O)CNC(=O)[C@@H](NC(=O)[C@H](CC(N)=O)NC(=O)[C@@H](NC(=O)[C@H](CCC(=O)O)NC(=O)[C@H](CO)NC(=O)[C@H](Cc1c[nH]c2ccccc12)NC(=O)[C@H](Cc1ccc(O)cc1)NC(=O)[C@@H](N)CO)[C@@H](C)O)[C@@H](C)O)C(=O)N[C@@H](C)C(=O)N1CCC[C@H]1C(N)=O` [Peptide D06P91] (H-SYWSETNTGGDNGGHYAAAP-NH2), the “Cytotoxic activity in vitro” value was “− (symbol − indicates its absence, following criteria established in Example 2)”.

For `CC[C@H](C)[C@H](NC(=O)[C@H](C)NC(=O)[C@H](C)NC(=O)[C@@H](NC(=O)[C@H](CC(=O)O)NC(=O)[C@H](CC(=O)O)NC(=O)[C@H](CC(C)C)NC(=O)[C@H](CC(C)C)NC(=O)[C@@H]1CCCN1C(=O)[C@H](C)NC(=O)[C@H](C)NC(=O)[C@H](C)NC(=O)[C@H](Cc1ccc(O)cc1)NC(=O)[C@H](Cc1c[nH]cn1)NC(=O)CNC(=O)CNC(=O)[C@H](CC(N)=O)NC(=O)[C@@H](N)CC(=O)O)[C@@H](C)CC)C(=O)N[C@@H](CCC(N)=O)C(=O)N[C@@H](Cc1c[nH]cn1)C(N)=O` [Peptide E07P01] (H-DNGGHYAAAPLLDDIAAIQH-NH2), the “Cytotoxic activity in vitro” value was “− (symbol − indicates its absence, following criteria established in Example 2)”.

Consider `CC[C@H](C)[C@H](NC(=O)[C@H](CC(N)=O)NC(=O)[C@@H](N)C(C)C)C(=O)NCC(=O)NCC(=O)N[C@@H](Cc1c[nH]cn1)C(=O)N[C@@H](CCC(N)=O)C(=O)N[C@@H](C)C(=O)N1CCC[C@H]1C(=O)N[C@@H](CC(=O)O)C(=O)N[C@@H](Cc1ccccc1)C(=O)N[C@@H](CC(C)C)C(=O)N[C@H](C(=O)N[C@@H](CCCCN)C(=O)N[C@H](C(=O)N[C@H](C(=O)NCC(=O)N[C@@H](CCC(N)=O)C(=O)N[C@H](C(=O)N[C@@H](CC(=O)O)C(N)=O)C(C)C)C(C)C)[C@@H](C)CC)C(C)C` [Peptide E07P02] (H-VNIGGHQAPDFLVKIVGQVD-NH2), for which the “Cytotoxic activity in vitro” value is “− (symbol − indicates its absence, following criteria established in Example 2)”.

Take `CC[C@H](C)[C@H](NC(=O)[C@H](Cc1ccccc1)NC(=O)[C@H](CC(=O)O)NC(=O)[C@@H](NC(=O)[C@H](C)NC(=O)[C@@H](NC(=O)[C@H](CC(=O)O)NC(=O)[C@@H](NC(=O)[C@H](CCC(N)=O)NC(=O)CNC(=O)[C@@H](NC(=O)[C@@H](NC(=O)[C@H](CCCCN)NC(=O)[C@@H](NC(=O)[C@H](CC(C)C)NC(=O)[C@@H](N)Cc1ccccc1)C(C)C)[C@@H](C)CC)C(C)C)C(C)C)C(C)C)[C@@H](C)O)C(=O)N[C@H](C(N)=O)C(C)C` [Peptide E07P03, FLVKIVGQVDVATDFIV- amide] (H-FLVKIVGQVDVATDFIV-NH2): the “Cytotoxic activity in vitro” value is reported as “− (symbol − indicates its absence, following criteria established in Example 2)”.

With `CC[C@H](C)[C@H](NC(=O)[C@H](C)NC(=O)[C@H](C)NC(=O)[C@@H](NC(=O)[C@H](CC(=O)O)NC(=O)[C@H](CC(=O)O)NC(=O)[C@H](CC(C)C)NC(=O)[C@@H](N)CC(C)C)[C@@H](C)CC)C(=O)N[C@@H](CCC(N)=O)C(=O)N[C@@H](Cc1c[nH]cn1)C(=O)N[C@@H](CC(C)C)C(=O)N[C@@H](Cc1ccc(O)cc1)C(=O)NCC(=O)N[C@@H](C)C(=O)N[C@@H](CC(N)=O)C(=O)N1CCC[C@H]1C(=O)N[C@@H](CO)C(=O)N[C@H](C(=O)N[C@@H](CCCNC(=N)N)C(=O)N[C@H](C(N)=O)[C@@H](C)O)[C@@H](C)O` [Peptide E07P05] (H-LLDDIAAIQHLYGANPSTRT-NH2), the “Cytotoxic activity in vitro” value is “− (symbol − indicates its absence, following criteria established in Example 2)”.

For the compound `CC(C)C[C@H](N)C(=O)N[C@@H](Cc1ccc(O)cc1)C(=O)NCC(=O)N[C@@H](C)C(=O)N[C@@H](CC(N)=O)C(=O)N1CCC[C@H]1C(=O)N[C@@H](CO)C(=O)N[C@H](C(=O)N[C@@H](CCCNC(=N)N)C(=O)N[C@H](C(=O)NCC(=O)N[C@@H](CC(=O)O)C(=O)N[C@H](C(=O)N[C@H](C(=O)N[C@@H](Cc1ccc(O)cc1)C(=O)NCC(=O)N[C@@H](Cc1ccccc1)C(=O)N[C@@H](CC(N)=O)C(=O)N[C@@H](CO)C(=O)N[C@@H](CC(N)=O)C(N)=O)C(C)C)[C@@H](C)O)[C@@H](C)O)[C@@H](C)O` [Peptide E07P06] (H-LYGANPSTRTGDTVYGFNSN-NH2), the “Cytotoxic activity in vitro” value was “− (symbol − indicates its absence, following criteria established in Example 2)”.

Still in this data set, the particulars now being: peptide library screening.
Turning to `CC(C)C[C@H](N)C(=O)N[C@@H](Cc1ccc(O)cc1)C(=O)NCC(=O)N[C@@H](C)C(=O)N[C@@H](CC(N)=O)C(=O)N1CCC[C@H]1C(=O)N[C@@H](CO)C(=O)N[C@H](C(=O)N[C@@H](CCCNC(=N)N)C(=O)N[C@H](C(=O)NCC(=O)N[C@@H](CC(=O)O)C(=O)N[C@H](C(=O)N[C@H](C(=O)N[C@@H](Cc1ccc(O)cc1)C(=O)NCC(=O)N[C@@H](Cc1ccccc1)C(=O)N[C@@H](CC(N)=O)C(=O)N[C@@H](CO)C(=O)N[C@@H](CC(N)=O)C(N)=O)C(C)C)[C@@H](C)O)[C@@H](C)O)[C@@H](C)O` [Peptide E07P06] (H-LYGANPSTRTGDTVYGFNSN-NH2), the “cytotoxic / biological activity in vitro on tumor cells” value was “no cytotoxic activity”.
